{"source": "patent US8198507B2", "about": "“Transgenic or recombinant non-human mammals and their uses in screening psychoactive medicines” (Institut National de la Sante Et de la Recherche Medicale - …, priority 2000, dated 2012)", "key": {"[1]": {"tested_on": "STOP KO (−/−) mice", "assay": "Survival of the newborns of treated STOP KO (−/−) mothers", "assay_type": "in vivo", "conditions": "short-term treatment (6 to 8 days before birth), 0.5 mg/kg/day", "procedure": "The survival of the newborns is analyzed among the STOP KO (−/−) mice subjected to various treatments. The newborns are considered to be survivors when they are raised until weaning.\n(§1) Haloperidol (Haldol^R, JANSSEN-CILAG), chlorpromazine (Largactil^R, RHONE-POULENC) and diazepam (Valium^R, ROCHE) were administered to the mice in the drinking water, at a dose of 0.5 mg/kg/day."}, "[2]": {"tested_on": "STOP KO (−/−) mice", "conditions": "STOP KO (−/−) mothers, short-term treatment (6 to 8 days before birth), 0.5 mg/kg/day in the drinking water, first day post-partum", "procedure": "Post-partum females (second gestation) were reared individually from the beginning of their gestation. On the day of giving birth, the young mice were removed and kept in the warm for one hour. The mother was then removed from her usual cage and three newborns were each placed in a corner of this same cage, at a distance from the nest. Next, the mother was returned to her nest and the number of young mice reinstalled in the nest, over a period of 20 minutes, was evaluated.\nThe effect of anxiolytics (diazepam) and of neuro-leptics (chlorpromazine, haloperidol or clozapine) on the behavioral disorders of the STOP KO (−/−) mice was evaluated in the maternal behavior test as defined in example 3 (“reinstallation in the nest” test).\nas §1\nThe effect of short-term administration (for 6 to 8 days from the 6th day preceding the birth) of anxiolytics (diazepam) and of neuroleptics (chlorpromazine, haloperidol or clozapine) on the behavioral disorders of the STOP KO (−/−) mice was evaluated in the “reinstallation in the nest” test."}}}
{"smiles": "CN1C(=O)CN=C(c2ccccc2)c2cc(Cl)ccc21", "note": "[diazepam]", "values": [{"measurement": "survival of the young mice", "setting": "[1]", "value": "no survival"}, {"measurement": "reinstallation of the young mice in the nest", "setting": "[2]", "value": "slightly improved"}]}
